Measurements: PubChem BioAssay (NCI)
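Five concentrations, 48 hours, 96-well plates. The concentration for full growth arrest is given as TGI.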

Legend:
Test in all cases: inhibition of tumour cell growth, NCI panel, 48 h
[1] = tested on: 786-0 renal
[2] = tested on: A498 renal
[3] = tested on: A549 NSCLC
[4] = tested on: ACHN renal
[5] = tested on: CAKI-1 renal
[6] = tested on: CCRF-CEM leukemia
[7] = tested on: COLO 205 colon
[8] = tested on: DLD-1 colon
[9] = tested on: DMS 114 small cell lung
[10] = tested on: DMS 273 small cell lung
[11] = tested on: EKVX NSCLC
[12] = tested on: HCC-2998 colon
[13] = tested on: HCT-116 colon
[14] = tested on: HCT-15 colon
[15] = tested on: HL-60(TB) leukemia
[16] = tested on: HOP-18 NSCLC
[17] = tested on: HOP-62 NSCLC
[18] = tested on: HOP-92 NSCLC
[19] = tested on: HT29 colon
[20] = tested on: IGROV1 ovarian
[21] = tested on: K-562 leukemia
[22] = tested on: KM20L2 colon
[23] = tested on: LOX IMVI melanoma
[24] = tested on: LXFL 529 NSCLC
[25] = tested on: M14 melanoma
[26] = tested on: M19-MEL melanoma
[27] = tested on: MALME-3M melanoma
[28] = tested on: MOLT-4 leukemia
[29] = tested on: NCI-H226 lung
[30] = tested on: NCI-H23 lung
[31] = tested on: NCI-H460 lung
[32] = tested on: NCI-H522 lung
[33] = tested on: OVCAR-3 ovarian
[34] = tested on: OVCAR-4 ovarian
[35] = tested on: OVCAR-5 ovarian
[36] = tested on: OVCAR-8 ovarian
[37] = tested on: RPMI-8226 leukemia
[38] = tested on: RXF 393 renal
[39] = tested on: SF-268 CNS
[40] = tested on: SF-295 CNS
[41] = tested on: SF-539 CNS
[42] = tested on: SK-MEL-2 melanoma
[43] = tested on: SK-MEL-5 melanoma
[44] = tested on: SK-OV-3 ovarian
[45] = tested on: SN12C renal
[46] = tested on: SNB-19 CNS
[47] = tested on: SNB-75 CNS
[48] = tested on: SR leukemia
[49] = tested on: SW-620 colon
[50] = tested on: TK-10 renal
[51] = tested on: U251 CNS
[52] = tested on: UACC-257 melanoma
[53] = tested on: UACC-62 melanoma
[54] = tested on: UO-31 renal
[55] = tested on: XF 498 CNS
[56] = tested on: BT-549 breast
[57] = tested on: DU-145 prostate
[58] = tested on: HS 578T breast
[59] = tested on: KM12 colon
[60] = tested on: MCF7 breast
[61] = tested on: MDA-MB-231 breast
[62] = tested on: MDA-MB-435
[63] = tested on: MDA-N
[64] = tested on: NCI/ADR-RES ovarian
[65] = tested on: PC-3 prostate
[66] = tested on: SK-MEL-28 melanoma
[67] = tested on: T-47D breast

In the case of `CCOC(=O)C1=C(C)N(NC(=O)Nc2ccccc2)C(=O)C1=P(c1ccccc1)(c1ccccc1)c1ccccc1`, the TGI [1] is reported as > 100 µM, the TGI [2] is reported as > 100 µM and the TGI [3] is reported as > 100 µM. The TGI [4] was > 100 µM, the TGI [5] was > 100 µM and the TGI [6] was 96.7 µM. The TGI [7] was 56.4 µM, the TGI [8] was > 100 µM and the TGI [9] was > 100 µM. For the same compound, the TGI [10] was > 100 µM, the TGI [11] was > 100 µM and the TGI [12] was > 100 µM. The TGI [13] was > 100 µM, the TGI [14] was > 100 µM and the TGI [15] was 50.4 µM. The TGI [16] was > 100 µM, the TGI [17] was > 100 µM and the TGI [18] was > 100 µM. The TGI [19] was > 100 µM, the TGI [20] was > 100 µM and the TGI [21] was > 100 µM. For the same compound, the TGI [22] was > 100 µM, the TGI [23] was > 100 µM and the TGI [24] was > 100 µM. For the same compound, the TGI [25] was > 100 µM, the TGI [26] was > 100 µM and the TGI [27] was > 100 µM. The TGI [28] was 65.6 µM, the TGI [29] was > 100 µM and the TGI [30] was > 100 µM. For the same compound, the TGI [31] was > 100 µM, the TGI [32] was 63.8 µM and the TGI [33] was > 100 µM. The TGI [34] was > 100 µM, the TGI [35] was > 100 µM and the TGI [36] was > 100 µM. The TGI [37] was 82.5 µM, the TGI [38] was 72.5 µM and the TGI [39] was > 100 µM. The TGI [40] was > 100 µM, the TGI [41] was 53.3 µM and the TGI [42] was 98.3 µM. The TGI [43] was > 100 µM, the TGI [44] was > 100 µM and the TGI [45] was > 100 µM. For the same compound, the TGI [46] was > 100 µM, the TGI [47] was > 100 µM and the TGI [48] was 56.1 µM. For the same compound, the TGI [49] was > 100 µM, the TGI [50] was > 100 µM and the TGI [51] was > 100 µM. The TGI [52] was > 100 µM, the TGI [53] was 89.9 µM and the TGI [54] was > 100 µM. The TGI [55] was 95.3 µM.

In the case of `COc1cc(CNCc2cc(OC)c(OC)c(OC)c2)cc(OC)c1OC`, the TGI [1] is reported as > 10 µM, the TGI [2] is reported as > 10 µM and the TGI [3] is reported as > 10 µM. The TGI [4] was > 10 µM, the TGI [56] was > 10 µM and the TGI [5] was > 10 µM. The TGI [6] was 5.86 µM, the TGI [7] was > 10 µM and the TGI [57] was > 10 µM. The TGI [11] was > 10 µM, the TGI [12] was > 10 µM and the TGI [13] was > 10 µM. For the same compound, the TGI [14] was > 10 µM, the TGI [15] was > 6.74 µM and the TGI [17] was > 10 µM. For the same compound, the TGI [18] was > 10 µM, the TGI [58] was > 10 µM and the TGI [19] was > 10 µM. The TGI [20] was > 10 µM, the TGI [21] was > 7.36 µM and the TGI [59] was > 10 µM. The TGI [23] was > 10 µM, the TGI [25] was > 10 µM and the TGI [27] was > 10 µM. For the same compound, the TGI [60] was > 10 µM, the TGI [61] was > 10 µM and the TGI [62] was > 10 µM. The TGI [63] was > 10 µM, the TGI [28] was > 10 µM and the TGI [29] was > 10 µM. For the same compound, the TGI [30] was > 10 µM, the TGI [31] was > 10 µM and the TGI [32] was > 6.46 µM. For the same compound, the TGI [64] was > 10 µM, the TGI [33] was > 10 µM and the TGI [34] was > 10 µM. For the same compound, the TGI [35] was > 10 µM, the TGI [36] was > 10 µM and the TGI [65] was > 10 µM. For the same compound, the TGI [37] was > 10 µM, the TGI [38] was > 10 µM and the TGI [39] was > 10 µM. The TGI [40] was > 10 µM, the TGI [41] was > 10 µM and the TGI [42] was > 10 µM. For the same compound, the TGI [66] was > 10 µM, the TGI [43] was > 10 µM and the TGI [44] was > 10 µM. For the same compound, the TGI [45] was > 10 µM, the TGI [46] was > 10 µM and the TGI [47] was > 10 µM. The TGI [48] was > 9.12 µM, the TGI [49] was > 10 µM and the TGI [67] was > 10 µM. For the same compound, the TGI [50] was > 10 µM, the TGI [51] was > 10 µM and the TGI [52] was > 10 µM. For the same compound, the TGI [53] was > 10 µM and the TGI [54] was > 10 µM.

In the case of `COc1cc(C2C(Cl)C(=O)N2NC(=O)c2ccc(NC(C)=O)cc2)cc(OC)c1OC` (stereo unspecified), the TGI [3] is reported as > 100 µM, the TGI [6] is reported as > 100 µM and the TGI [7] is reported as > 100 µM. The TGI [8] was > 100 µM, the TGI [13] was > 100 µM and the TGI [15] was > 100 µM. For the same compound, the TGI [16] was > 100 µM, the TGI [17] was > 100 µM and the TGI [18] was > 100 µM. For the same compound, the TGI [19] was > 100 µM, the TGI [20] was > 100 µM and the TGI [21] was > 100 µM. For the same compound, the TGI [59] was > 100 µM, the TGI [24] was > 100 µM and the TGI [26] was > 100 µM. The TGI [27] was > 100 µM, the TGI [28] was > 100 µM and the TGI [29] was > 100 µM. The TGI [30] was > 100 µM, the TGI [31] was > 100 µM and the TGI [32] was > 100 µM. For the same compound, the TGI [33] was > 100 µM, the TGI [35] was > 100 µM and the TGI [37] was > 100 µM. The TGI [39] was > 100 µM, the TGI [40] was > 100 µM and the TGI [41] was > 100 µM. For the same compound, the TGI [42] was > 100 µM, the TGI [66] was > 100 µM and the TGI [43] was > 100 µM. The TGI [44] was > 100 µM, the TGI [46] was > 100 µM and the TGI [47] was > 100 µM. The TGI [49] was > 100 µM, the TGI [50] was > 100 µM and the TGI [51] was > 100 µM. For the same compound, the TGI [52] was > 100 µM, the TGI [53] was > 100 µM and the TGI [54] was > 100 µM.

`CON(C)C(=O)CNC(=O)OCC1c2ccccc2-c2ccccc21` was tested, and the TGI [1] was > 100 µM, the TGI [2] was > 100 µM and the TGI [3] was > 100 µM. The TGI [4] was > 100 µM, the TGI [56] was > 100 µM and the TGI [6] was > 100 µM. For the same compound, the TGI [7] was > 100 µM, the TGI [57] was > 100 µM and the TGI [11] was > 100 µM. The TGI [12] was > 100 µM, the TGI [13] was > 100 µM and the TGI [14] was > 100 µM. For the same compound, the TGI [15] was 90.9 µM, the TGI [17] was > 100 µM and the TGI [18] was > 100 µM. For the same compound, the TGI [58] was > 100 µM, the TGI [19] was > 100 µM and the TGI [20] was > 100 µM. The TGI [21] was > 100 µM, the TGI [59] was > 100 µM and the TGI [23] was 53.1 µM. For the same compound, the TGI [25] was > 100 µM, the TGI [27] was > 100 µM and the TGI [60] was > 100 µM. For the same compound, the TGI [61] was > 100 µM, the TGI [62] was > 100 µM and the TGI [63] was > 100 µM. For the same compound, the TGI [28] was > 100 µM, the TGI [29] was > 100 µM and the TGI [30] was > 100 µM. For the same compound, the TGI [31] was > 100 µM, the TGI [32] was > 100 µM and the TGI [64] was > 100 µM. For the same compound, the TGI [33] was > 100 µM, the TGI [34] was > 100 µM and the TGI [35] was > 100 µM. The TGI [36] was > 100 µM, the TGI [65] was > 100 µM and the TGI [37] was 91.7 µM. For the same compound, the TGI [38] was > 100 µM, the TGI [39] was > 100 µM and the TGI [40] was > 100 µM. The TGI [41] was > 100 µM, the TGI [42] was > 100 µM and the TGI [66] was > 100 µM. The TGI [43] was > 100 µM, the TGI [44] was > 100 µM and the TGI [45] was > 100 µM. For the same compound, the TGI [46] was > 100 µM, the TGI [47] was > 100 µM and the TGI [48] was 69.6 µM. For the same compound, the TGI [49] was > 100 µM, the TGI [67] was > 100 µM and the TGI [50] was > 100 µM. For the same compound, the TGI [51] was > 100 µM, the TGI [52] was > 100 µM and the TGI [53] was > 100 µM. The TGI [54] was > 100 µM.
